Where two headings read alike, the source gives them in different places.

As usually defined, the IC50 is the point on the concentration scale where inhibition reaches its midpoint.

The nature of experiment [1]: Oxygen radical absorbance capacity (ORAC) assay. As to conditions: for ORAC antioxidant activity: Trolox equivalent per gram of sample, mean ± SD, n=3; for ORAC AA (%) antioxidant activity percentage: compared to ascorbic acid (=100). Here is the method: (§1) all of analytical grade. An electrothermal 9100 (UK) was used for the determination of melting points (uncorrected). A Jenway model 6800 spectrophotometer was utilized for recording UV spectra. A Tecan, microplate reader, ((Infinite F50, Switzerland)) was used to measure the absorbances. A Bruker NMR system was used for 1H-NMR (400 MHz) and 13C-NMR (100 MHz).
(§2) The NMR spectra were determined in CD3OH and DMSO-d6. Chemical shifts are given in δ (ppm) relative to the internal standard TMS. Phenolic acids and flavonoids used in HPLC analysis as well as all other reagents for biological investigations were obtained from Sigma Chemical Company […]
(§3) Determination of the antioxidant activity
(§4) 2,2`-Azino-bis(3-ethylbenzothiazoline-6-sulfonic acid) (ABTS), ferric reducing antioxidant power (FRAP), and oxygen radical absorbance capacity (ORAC) assays were performed according to the previously published procedures. Ascorbic acid was used as a reference antioxidant […]
drug. […]

Experiment [2] can be described thus: ABTS radical scavenging antioxidant assay. Details: ABTS AA (%) antioxidant activity percentage: concentration or dose not given beside the values. As to conditions: for ABTS antioxidant activity: Trolox equivalent per gram of sample, mean ± SD, n=3; for ABTS AA (%) antioxidant activity percentage: compared to ascorbic acid (=100). Here is the method:
as §1, §2, §3, §4
drug. […]

The nature of experiment [3]: Ferric reducing antioxidant power (FRAP) assay. The following applies: for FRAP antioxidant activity: Trolox equivalent per gram of sample, mean ± SD, n=3; for FRAP AA (%) antioxidant activity percentage: compared to ascorbic acid (=100). On the set-up: FRAP AA (%) antioxidant activity percentage: concentration or dose not given beside the values. The protocol:
as §1, §2, §3, §4
drug. […]

Experiment [4] deals with T1, Recombinant renin (Homo sapiens, UniProt P00797).
T1 construct: purchased BPS Bioscince
T1 sequence (P00797 67-406): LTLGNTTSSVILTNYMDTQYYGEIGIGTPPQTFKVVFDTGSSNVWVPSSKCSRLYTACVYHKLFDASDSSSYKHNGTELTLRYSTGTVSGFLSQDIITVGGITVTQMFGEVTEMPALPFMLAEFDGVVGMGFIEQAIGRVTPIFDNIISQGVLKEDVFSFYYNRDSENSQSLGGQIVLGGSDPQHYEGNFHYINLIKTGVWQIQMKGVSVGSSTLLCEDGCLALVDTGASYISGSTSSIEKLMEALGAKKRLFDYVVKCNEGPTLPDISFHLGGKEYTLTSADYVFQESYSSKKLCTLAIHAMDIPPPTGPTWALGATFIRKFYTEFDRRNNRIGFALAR
Kind of experiment: Renin inhibitory activity (renin-inhibitor screening assay kit). Format: biochemical. The following applies: read-out: Inhibition (IC50) Renin (converted). The protocol:
all of analytical grade. […]
(§5) Phenolic acids and flavonoids used in HPLC analysis as well as all other reagents for biological investigations were obtained from Sigma Chemical Company […]
(§6) Inhibitory activity against key enzymes related to metabolic syndrome (MS) All assays were performed in 96-well plates. Stock solutions of the extract (100 mg/mL), fractions (100 mg/mL), and isolated compounds (1000 µM) were prepared. Tested samples that exceeded […]
(§7) inhibitory concentration (IC50). The percentage of enzyme inhibition was calculated according to […]
(§8) % Inhibition = (A−B) − (C−D) x 100 […]
Renin inhibitory activity
The renin inhibitory activity was examined according to a previously described method using renin-inhibitor screening assay kit (BPS Bioscince, San Diego, CA, USA) and quinapril as a reference drug. Recombinant renin enzyme (50 μL) was dissolved in 50-mM Tris-HCl buffer (pH 8.0) and 100-mM NaCl (assay buffer) and stored at –80°C for further analysis. Twenty μL of renin substrate (A500 μM in DMSO), 150 μL of assay buffer, and 10 μL of each sample were used to prepare test solutions (10mg/ml in methanol). The blank samples were made using 10 μL of the sample, 20 μL of the substrate, and 160 μL of assay buffer. The positive control samples were created using 10 μL of methanol, 20 μL of substrate, and 150 μL of assay buffer. The positive control and tested samples were combined with 10 μL of the renin solution for the assay in order to catalyze the reaction. After that, the reaction mixture was incubated for 45 minutes at 37 °C.
The fluorescence generated at the 340 nm excitation and 490 nm emission wavelengths was measured using a microplate reader.
Xanthine oxidase (XO) inhibitory activity
Xanthine oxidase (XO) inhibitory potential was carried out according to a previous designed procedure using xanthine oxidase (XO, EC 1.17.3.2; Biovision, USA). Allopurinol was applied as a reference drug. Immediately prior to use, a mixture was made up of 50 μL of sample solution, 35 μL of phosphate buffer (70 mM, pH = 7.5), and 30 μL of new enzyme solution (0.01 units/mL in the same buffer). The reaction was started by adding 60 μL of the substrate solution (150 μM xanthine in the same buffer) following a pre-incubation at 25 °C for 15 minutes. After that, the mixture was incubated at 25 °C for 30 min. After adding 25 μL of 1 M HCl to terminate the reaction, the absorbance was measured at 290 nm with a microplate reader as previously

Experiment [5] has as its target T2, inducible nitric oxide synthase (iNOS) (Mus musculus, UniProt P29477).
T2 construct: endogenous in cells; host or cells: RAW264.7 mouse macrophages, LPS-induced
T2 sequence (P29477 1-1144): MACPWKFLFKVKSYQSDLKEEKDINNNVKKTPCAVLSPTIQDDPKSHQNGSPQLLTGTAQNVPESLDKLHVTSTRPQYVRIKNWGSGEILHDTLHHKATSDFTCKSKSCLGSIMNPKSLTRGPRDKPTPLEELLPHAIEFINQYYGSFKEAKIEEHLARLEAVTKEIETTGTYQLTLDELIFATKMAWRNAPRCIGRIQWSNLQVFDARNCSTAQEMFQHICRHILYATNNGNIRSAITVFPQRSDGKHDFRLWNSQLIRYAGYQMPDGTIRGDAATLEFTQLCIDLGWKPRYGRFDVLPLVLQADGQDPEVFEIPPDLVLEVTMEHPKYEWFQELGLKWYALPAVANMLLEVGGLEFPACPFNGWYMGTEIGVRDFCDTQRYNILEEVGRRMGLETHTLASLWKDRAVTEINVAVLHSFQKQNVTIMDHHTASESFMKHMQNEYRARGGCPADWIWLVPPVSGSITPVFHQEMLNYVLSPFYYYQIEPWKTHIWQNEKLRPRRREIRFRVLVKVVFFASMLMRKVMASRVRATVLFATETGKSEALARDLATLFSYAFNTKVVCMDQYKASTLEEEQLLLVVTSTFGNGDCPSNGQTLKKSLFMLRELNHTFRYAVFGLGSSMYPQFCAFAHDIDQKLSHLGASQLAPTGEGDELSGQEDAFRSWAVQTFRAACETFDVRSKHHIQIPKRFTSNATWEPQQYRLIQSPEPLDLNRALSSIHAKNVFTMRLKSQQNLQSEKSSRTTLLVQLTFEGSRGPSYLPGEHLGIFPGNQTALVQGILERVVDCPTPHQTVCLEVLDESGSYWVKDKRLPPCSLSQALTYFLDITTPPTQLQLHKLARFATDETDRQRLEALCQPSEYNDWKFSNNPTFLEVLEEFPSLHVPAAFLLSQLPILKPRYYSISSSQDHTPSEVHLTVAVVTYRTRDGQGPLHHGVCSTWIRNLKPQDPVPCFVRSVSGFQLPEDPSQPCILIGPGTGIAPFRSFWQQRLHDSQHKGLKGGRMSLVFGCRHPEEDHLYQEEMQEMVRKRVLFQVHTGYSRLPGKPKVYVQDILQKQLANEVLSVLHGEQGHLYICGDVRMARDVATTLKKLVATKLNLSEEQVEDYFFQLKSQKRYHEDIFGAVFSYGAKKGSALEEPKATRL
The experiment is described as follows: iNOS inhibitory activity in LPS-induced RAW264.7 macrophages (nitrite, Griess reagent). The class given is cell-based. The following applies: read-out: Inhibition (IC50) iNOS (converted). Here is the method:
as §5, §6, §7, §8
Inducible nitric oxide synthase (iNOS) inhibitory activity iNOS inhibitory activity was determined in mouse macrophage cells (RAW264.7, Shanghai BOGO Industrial Co., Ltd., China) according to a previously designed method. Phenol red-free RPMI medium from Thermo-Fisher was used to develop macrophages. It was supplemented with 10% bovine calf serum, 100 U/mL of penicillin G sodium from Sigma-Aldrich, and 100 µg/mL of streptomycin (Sigma-Aldrich). Cells (50,000/well) were seeded onto 96-well plates, which were […]

Regarding `O=C1O[C@H]([C@@H](O)CO)C(O)=C1O` [Ascorbic acid, reference compound], in experiment [1], the ORAC antioxidant activity is 390.21±0.99 μM TE/g and the “ORAC AA (%) antioxidant activity percentage” value is reported as 100%. Moreover, in experiment [2], the ABTS antioxidant activity amounted to 287.78±1.01 μM TE/g and the “ABTS AA (%) antioxidant activity percentage” value turned out to be 100%. Besides, in experiment [3], the FRAP antioxidant activity turned out to be 155.22±0.03 μM TE/g and the “FRAP AA (%) antioxidant activity percentage” value is listed as 100%.
Take `O=c1c(O)c(-c2ccc(O)c(O)c2)oc2cc(O)cc(O)c12` [P5, quercetin]: the ORAC antioxidant activity in experiment [1] is on record as 358.95±0.78 μM TE/g; in experiment [1] (listed as quercetin) it was 358.95 ± 0.78 μM TE/g. For the same compound, the “ORAC AA (%) antioxidant activity percentage” value in experiment [1] is listed as 91.99%. Further, the ABTS antioxidant activity in experiment [2] worked out at 244.01±0.29 μM TE/g; in experiment [2] (listed as quercetin) it was 244.01 ± 0.29 μM TE/g. For the same compound, the “ABTS AA (%) antioxidant activity percentage” value in experiment [2] is 84.79%. Further, the values for the FRAP antioxidant activity in experiment [3] and in experiment [3] (listed as quercetin) were 139.03±0.65 μM TE/g and 139.03 ± 0.65 μM TE/g, respectively. Moreover, the “FRAP AA (%) antioxidant activity percentage” value in experiment [3] is recorded as 89.57%. Moreover, in experiment [4] (isolated compounds, Table S7), the IC50 is 21900 ± 250 nM.
As for `C=C1C(=O)O[C@H]2[C@H]1CC/C(C)=C/CC[C@@]1(C)O[C@@H]21` [parthenolide, reference compound], the IC50 in experiment [5] (extract and fractions, Table S2, RAW264.7 cells) is 4.51 µM; in experiment [5] (isolated compounds, Table S7, RAW264.7 cells), 4.51 µM.
Take `CCOC(=O)[C@H](CCc1ccccc1)N[C@@H](C)C(=O)N1Cc2ccccc2C[C@H]1C(=O)O` [quinapril, reference compound]: the IC50 in experiment [4] (extract and fractions, Table S2) was 45.6 nM; in experiment [4] (isolated compounds, Table S7), 45 nM.

Values taken from article PMC10363080, “Modulatory Effect of Pyrus pyrifolia Fruit and its Phenolics on Key Enzymes against Metabolic Syndrome: Bioassay-Guided Approach, HPLC Analysis, and In Silico Study” (Plant Foods for Human Nutrition (Dordrecht, Netherlands), 2023).
